Source: patent US20050142254A1 (priority 2003, published 2005)
Read-outs that look alike come from different tables or passages of the source.

What was measured:
[1] = assay type: biochemical
Experimental: […]. Here, 25 μL of 400 μM hemin suspension was added to it and incubated at 30° C. for 30 minutes. The final concentration of each component was: AFB1, 16 μM; hydrogen peroxide, 500 μM; Tween 80, 1%; hemin, 100 μM.
After the reaction, HPLC and TLC analyses were performed to confirm the degradation of AFB1 and the formation of reaction product. The equal amount of ethyl acetate was added to the reaction mixture, and extraction was done by mixing with a Voltex mixer for 1 minute. The resulting mixture was centrifuged at 10,000×g for 2 minutes, and the ethyl acetate layer (upper layer) was recovered in a new 0.5-mL microtube.
The extract was used for HPLC analysis in succession. The separation column used was a silica column, Shim-pack CLC-SIL (0.46×15 cm). […].
AFB1 degradation was performed at 30° C. for 30 minutes in the same manner as in Example 1 except that the amount of hemin added was varied.
After the reaction, the amount of remaining AFB1 and that of AFQ1 formed were measured quantitatively by HPLC.
AFB1 degradation was performed at 30° C. for 30 minutes in the same manner as in Example 1 except that the amount of hydrogen peroxide added was varied.
After the reaction, amount of the remaining AFB1 and that of AFQ1 formed were measured quantitatively by HPLC.
(§1) AFB1 degradation was performed at 50° C. for 6 hours in the presence or absence of hemin with the same reaction mixture as used in Example 1. After the reaction, the reaction mixture was subjected to the mutagenicity test with Umlac. Ten percent of DMSO aqueous solution was prepared as a control without AFB1, and then subjected to the same mutagenicity test.

[2] = tested on: umu gene; assay type: cell-based
Experimental: Mutagenecity test was performed with the AFB1 degradation reaction mixture after hemin treatment. In the test, a conventional mutagenicity test kit “Umlac” (Nippon Antibody Laboratory) was used. Umlac is a kit for short-period mutagenicity test, umu-test, which was developed by Shinagawa (Research Institute for Microbial Diseases, Osaka University), et al. The test is to measure the expression level of umu gene using β-galactosidase activity as an index. The umu gene is considered to be a kind of SOS gene whose expression is induced by DNA-damaging chemicals, and known to be directly concerned with mutation. It has been confirmed that test result of “Umlac” well correlates with those of the Ames test and the carcinogenicity test that are currently used for typical mutagenicity test.
as §1
Higher umu gene expression represents higher mutagenicity. The control value represents no mutagenicity.

[3] = assay type: physicochemical
From the text: (§2) We also confirmed that AFQ1 degradation is accelerated by heat, and it occurs non-enzymatically. Horseradish peroxidase (HRP) has a strong AFB1-degrading activity as well as hemin.

[4] = assay type: biochemical; remark: listed apart in the source
From the text: as §2

[5] = Bisphenol A (BPA) degradation with hemin, HPLC; assay type: biochemical; details: 100 μM hemin, 400 μM BPA, 500 μM hydrogen peroxide, 30° C., reaction for 6 hours
Experimental: […]. hydrogen peroxide, 500 μM; Tween 80, 1%; hemin, 100 μM.
BPA degradation was confirmed by HPLC. After the reaction, a portion (100 μL) of the reaction mixture was taken, added to the equal amount of ethyl acetate, and extracted for 1 minute by mixing with a Voltex mixer. The mixture was centrifuged at 10,000×g for 2 minutes, and the ethyl acetate layer (upper layer) was recovered in a new 0.5-mL microtube.
HPLC analysis was conducted using the extract. The column used was STR ODS-II (0.46×15 cm). For the mobile phase for BPA quantification, 50% acetonitrile aqueous solution containing 0.1% trifluoroacetic acid was used at the flow rate of 0.7 mL/min. A UV-visible spectrophotometric detector (Shimadzu SPD-6AV) was used at the absorbance wave length of 277 nm for BPA detection.
For the mobile phase for the detection of BPA degradation product, 30% acetonitrile aqueous solution containing 0.1% trifluoroacetic acid was used at the flow rate of 0.5 mL/min. The absorbance at wave length of 280 nm was monitored for this detection.

[6] = Aniline degradation with hemin, HPLC; assay type: biochemical; details: 10 μM hemin, 50 μM aniline, 500 μM hydrogen peroxide, 30° C., reaction for 3 hours
Experimental: […]. Under this condition, the reaction mixture was uniform, thus no detergent was added to it.
After the reaction, equal amount of ethyl acetate was added to the reaction mixture, and extraction was done by mixing with a Voltex mixer for 1 minute, and then centrifuged at 10,000×g for 2 minutes. The resulting aniline-containing ethyl acetate layer (upper layer) was recovered in a new 0.5-mL microtube.
The ethyl acetate extract was directly subjected to HPLC analysis to determine the amount of remaining aniline. The column used was STRODS-II (0.46×15 cm). For mobile phase, 10% acetonitrile aqueous solution was used at the flow rate of 0.5 mL/min. With a UV-visible spectrophotometric detector (Shimadzu SPD-6AV), the absorbance at wave length of 280 nm was monitored for aniline detection.

[7] = assay type: biochemical; details: pH 7.5

In the case of COc1cc2c(c3oc(=O)c4c(c13)CCC4=O)C1C=COC1O2 (stereo not shown) [AFB1, aflatoxin B1], the “remaining AFB1” value [1] is reported as 12 µM and the “umu Gene Expression (OD620)” value [2] is reported as 1.185.
In the case of COc1cc2c(c3oc(=O)c4c(c13)C(O)CC4=O)C1C=COC1O2 (stereo not shown) [AFQ1, aflatoxin Q1], the “AFQ1 degradation, effect of temperature” value [3] is reported as “degraded much rapidly at 50 °C than 30 °C”.
With HRP: Horseradish peroxidase the AFB1-degrading activity [4] was “strong” and the “AFQ1-degradation rate, presence vs absence of HRP” value ([3]; 1 μM AFQ1 in phosphate buffer, 30° C. or 50° C.) was “no significant difference”.
With hemin the “amount of BPA relative to that initially added” value [5] was 18%, the “aniline relative to that initially added” value [6] was 45% and the AFB1 degraded ([1]; 200 μM hemin, 16 μM AFB1, 30° C. for 30 minutes) was “approximately 25%”. The “change in AFB1-degradation efficiency depending on hydrogen peroxide concentration” value ([1]; hemin, hydrogen peroxide 1.0 mM to 10 mM, 30° C. for 30 minutes) was “no significant increase”, the “remaining AFB1” value ([1]; reaction mixture with hemin, 16 μM AFB1, 50° C. for 6 hours) was at most 0.16 µM and the AFB1 added degraded ([1]; reaction mixture with hemin, 50° C. for 6 hours) was “more than 99%”. The “umu Gene Expression (OD620)” value ([2]; reaction mixture with AFB1 and hemin, treatment at 50° C. for 6 hours) was 0.523 and the “aflatoxin M1 disappeared” value [7] was 36%.
